{"source": "paper PMC4447334", "about": "(Journal of the American Chemical Society, 2015)", "origin": "cited, not measured here", "key": {"PAD4": {"target": "PAD4 (Homo sapiens, UniProt Q9UM07)", "sequence (Q9UM07 whole entry)": "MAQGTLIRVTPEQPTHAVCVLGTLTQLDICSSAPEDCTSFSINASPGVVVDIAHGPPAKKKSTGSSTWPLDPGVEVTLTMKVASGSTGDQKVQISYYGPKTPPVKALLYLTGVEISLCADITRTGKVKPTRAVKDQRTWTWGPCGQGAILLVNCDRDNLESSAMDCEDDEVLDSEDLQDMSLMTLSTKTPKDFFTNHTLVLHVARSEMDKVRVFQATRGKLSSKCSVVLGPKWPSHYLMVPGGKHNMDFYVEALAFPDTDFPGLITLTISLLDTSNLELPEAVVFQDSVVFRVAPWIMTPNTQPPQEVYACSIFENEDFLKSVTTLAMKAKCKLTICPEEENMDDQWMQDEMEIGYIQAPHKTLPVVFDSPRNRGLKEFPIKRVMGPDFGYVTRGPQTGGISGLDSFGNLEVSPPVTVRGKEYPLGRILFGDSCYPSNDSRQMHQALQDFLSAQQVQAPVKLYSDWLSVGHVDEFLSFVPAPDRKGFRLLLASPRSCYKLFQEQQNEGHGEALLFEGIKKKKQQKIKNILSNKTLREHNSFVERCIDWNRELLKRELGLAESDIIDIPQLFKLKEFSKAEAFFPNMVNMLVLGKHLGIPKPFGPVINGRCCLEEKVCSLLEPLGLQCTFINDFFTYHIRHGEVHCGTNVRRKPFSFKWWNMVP", "details": "approximate, from chart in Figure 6A"}, "PAD1": {"target": "T1, PAD1 (Homo sapiens, UniProt Q9ULC6)", "T1 sequence (Q9ULC6 1-663)": "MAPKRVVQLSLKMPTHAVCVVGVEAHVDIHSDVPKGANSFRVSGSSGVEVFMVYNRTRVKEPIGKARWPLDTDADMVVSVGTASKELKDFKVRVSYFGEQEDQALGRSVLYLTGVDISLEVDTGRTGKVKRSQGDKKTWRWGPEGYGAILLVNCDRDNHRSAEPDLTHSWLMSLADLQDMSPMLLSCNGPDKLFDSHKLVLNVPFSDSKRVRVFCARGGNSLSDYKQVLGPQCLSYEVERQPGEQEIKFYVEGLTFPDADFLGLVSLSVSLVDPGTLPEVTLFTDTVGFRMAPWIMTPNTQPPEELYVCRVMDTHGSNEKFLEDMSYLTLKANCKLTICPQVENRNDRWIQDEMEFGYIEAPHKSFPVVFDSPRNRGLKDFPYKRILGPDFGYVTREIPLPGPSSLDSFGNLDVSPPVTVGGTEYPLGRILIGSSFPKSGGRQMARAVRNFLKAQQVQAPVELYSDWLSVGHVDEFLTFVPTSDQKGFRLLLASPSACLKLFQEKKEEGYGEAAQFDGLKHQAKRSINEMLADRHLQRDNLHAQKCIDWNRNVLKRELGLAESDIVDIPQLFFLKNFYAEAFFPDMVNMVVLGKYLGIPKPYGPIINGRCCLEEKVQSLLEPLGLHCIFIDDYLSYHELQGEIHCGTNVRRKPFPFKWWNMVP", "details": "approximate, from chart in Figure 6A"}, "PAD3": {"target": "T2, PAD3 (Homo sapiens, UniProt Q9ULW8)", "T2 sequence (Q9ULW8 1-664)": "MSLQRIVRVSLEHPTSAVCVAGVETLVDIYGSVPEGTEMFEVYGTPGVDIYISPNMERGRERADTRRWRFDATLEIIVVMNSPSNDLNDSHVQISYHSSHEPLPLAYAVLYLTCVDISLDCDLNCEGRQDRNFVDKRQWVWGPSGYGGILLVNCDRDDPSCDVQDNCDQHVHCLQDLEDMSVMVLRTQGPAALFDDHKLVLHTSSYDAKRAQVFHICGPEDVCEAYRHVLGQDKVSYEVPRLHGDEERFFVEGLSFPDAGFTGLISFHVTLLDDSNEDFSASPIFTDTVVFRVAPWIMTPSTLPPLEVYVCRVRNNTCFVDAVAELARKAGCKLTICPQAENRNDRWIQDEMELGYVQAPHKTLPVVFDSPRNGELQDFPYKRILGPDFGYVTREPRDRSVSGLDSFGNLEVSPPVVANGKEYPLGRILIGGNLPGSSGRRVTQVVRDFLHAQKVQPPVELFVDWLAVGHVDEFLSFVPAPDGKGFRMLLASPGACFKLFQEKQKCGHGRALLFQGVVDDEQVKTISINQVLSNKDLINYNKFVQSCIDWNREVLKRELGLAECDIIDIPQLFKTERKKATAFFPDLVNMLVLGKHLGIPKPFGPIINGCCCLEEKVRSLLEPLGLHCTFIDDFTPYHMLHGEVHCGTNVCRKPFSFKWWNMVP", "details": "exact value reported"}}}
{"smiles": "N=C(CF)NCCCC[C@H](NC(=O)c1ccccc1)C(N)=O", "note": "[F4-amidine]", "values": [{"measurement": "IC50", "setting": "PAD4", "value": "~625", "unit": "µM"}, {"measurement": "IC50", "setting": "PAD1", "value": "~250", "unit": "µM"}, {"measurement": "IC50", "setting": "PAD3", "value": 65, "unit": "µM"}]}
